Activity calls are given as the source filed them. No cut-off for these calls is given here. Where a SMILES comes first, the peptide text is derived from it. Bridges are numbered along the chain shown (N, C = ends).

For the first assay, the target named is Voltage-dependent N-type calcium channel subunit alpha-1B (Homo sapiens, UniProt Q00975). Briefly: Inhibition of human Cav2.2 channel transfected in HEK293T cells co-expressed with human GABAB receptor assessed as inhibition of Cav2.2-mediated Ba2+ current at 100 nM measured for 3 to 5 days by whole-cell patch clamp assay. The class given is cell-based. The note with it: time 3-5 day. In general terms: Patch clamp records ionic current or voltage across a cell membrane.
Voltage-dependent N-type calcium channel subunit alpha-1B, sequence (Q00975 whole entry, looked up): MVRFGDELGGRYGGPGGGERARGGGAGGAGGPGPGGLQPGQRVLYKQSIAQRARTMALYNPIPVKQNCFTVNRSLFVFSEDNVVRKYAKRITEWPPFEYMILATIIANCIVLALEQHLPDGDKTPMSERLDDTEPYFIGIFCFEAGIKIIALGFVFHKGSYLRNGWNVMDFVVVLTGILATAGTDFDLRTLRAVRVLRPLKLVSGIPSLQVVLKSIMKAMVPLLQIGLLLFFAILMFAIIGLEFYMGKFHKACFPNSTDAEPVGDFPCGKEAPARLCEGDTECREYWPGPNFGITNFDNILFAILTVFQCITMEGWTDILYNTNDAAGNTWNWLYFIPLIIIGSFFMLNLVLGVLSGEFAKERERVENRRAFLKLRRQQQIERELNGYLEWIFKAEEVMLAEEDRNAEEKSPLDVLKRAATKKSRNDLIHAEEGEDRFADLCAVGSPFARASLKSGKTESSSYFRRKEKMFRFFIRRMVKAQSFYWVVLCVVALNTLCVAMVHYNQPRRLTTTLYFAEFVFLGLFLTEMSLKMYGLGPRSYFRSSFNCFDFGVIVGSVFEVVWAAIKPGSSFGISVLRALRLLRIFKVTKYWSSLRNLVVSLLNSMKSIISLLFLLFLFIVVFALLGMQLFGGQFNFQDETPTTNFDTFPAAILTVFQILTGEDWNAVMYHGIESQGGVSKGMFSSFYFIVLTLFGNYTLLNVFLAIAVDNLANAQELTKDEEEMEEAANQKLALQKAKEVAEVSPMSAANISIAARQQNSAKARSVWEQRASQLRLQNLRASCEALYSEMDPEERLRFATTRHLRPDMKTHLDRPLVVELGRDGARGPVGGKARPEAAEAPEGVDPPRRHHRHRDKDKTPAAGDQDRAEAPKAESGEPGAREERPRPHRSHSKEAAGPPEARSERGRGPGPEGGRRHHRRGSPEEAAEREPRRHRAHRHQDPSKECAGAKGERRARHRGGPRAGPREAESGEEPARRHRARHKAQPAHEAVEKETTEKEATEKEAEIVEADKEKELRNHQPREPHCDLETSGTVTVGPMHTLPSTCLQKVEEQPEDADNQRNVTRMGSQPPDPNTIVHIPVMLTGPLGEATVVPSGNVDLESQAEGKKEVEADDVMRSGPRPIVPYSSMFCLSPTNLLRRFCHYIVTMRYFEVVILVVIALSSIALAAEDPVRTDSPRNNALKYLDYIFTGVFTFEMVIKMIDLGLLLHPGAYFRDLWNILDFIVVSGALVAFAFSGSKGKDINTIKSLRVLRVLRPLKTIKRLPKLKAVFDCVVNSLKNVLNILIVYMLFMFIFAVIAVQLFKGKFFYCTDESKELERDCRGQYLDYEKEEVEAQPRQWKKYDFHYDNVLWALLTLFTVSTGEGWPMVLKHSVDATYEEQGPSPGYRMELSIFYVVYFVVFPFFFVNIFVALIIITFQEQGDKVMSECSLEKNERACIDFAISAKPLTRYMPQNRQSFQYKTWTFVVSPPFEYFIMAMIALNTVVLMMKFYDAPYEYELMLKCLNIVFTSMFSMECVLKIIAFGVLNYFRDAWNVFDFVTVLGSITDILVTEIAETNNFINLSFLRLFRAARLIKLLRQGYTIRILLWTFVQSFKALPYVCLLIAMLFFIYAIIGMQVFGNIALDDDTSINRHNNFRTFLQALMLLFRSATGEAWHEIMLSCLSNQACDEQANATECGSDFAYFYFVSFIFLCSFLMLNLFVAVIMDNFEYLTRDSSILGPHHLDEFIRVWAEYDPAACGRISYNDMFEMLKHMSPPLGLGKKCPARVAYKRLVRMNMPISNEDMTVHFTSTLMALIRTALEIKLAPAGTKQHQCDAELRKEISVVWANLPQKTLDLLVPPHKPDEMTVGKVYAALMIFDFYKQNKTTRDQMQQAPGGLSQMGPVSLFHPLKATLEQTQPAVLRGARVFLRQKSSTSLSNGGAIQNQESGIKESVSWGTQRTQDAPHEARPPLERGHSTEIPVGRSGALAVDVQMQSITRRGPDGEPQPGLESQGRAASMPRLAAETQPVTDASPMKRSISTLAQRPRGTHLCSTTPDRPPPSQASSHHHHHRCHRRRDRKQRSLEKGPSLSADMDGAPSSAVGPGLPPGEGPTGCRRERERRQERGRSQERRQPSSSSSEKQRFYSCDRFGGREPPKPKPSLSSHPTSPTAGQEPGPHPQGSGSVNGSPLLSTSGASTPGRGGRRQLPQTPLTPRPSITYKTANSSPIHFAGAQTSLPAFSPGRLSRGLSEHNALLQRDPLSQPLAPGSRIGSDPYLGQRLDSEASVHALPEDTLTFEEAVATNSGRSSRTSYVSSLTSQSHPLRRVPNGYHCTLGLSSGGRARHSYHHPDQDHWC
As usually defined, the inhibition is the percentage by which the read-out fell short of the control. For H-GRARSPYDRRRRYRRITD-NH2, the inhibition worked out at 10%. H-GRYRSPADRRRRYRRITD-NH2: the inhibition was determined as 60%. Still for that read-out and setting: the figure for H-GRYRSPYARRRRYRRITD-NH2 is 50%.

Turning to H-GRYRSPYDARRRYRRITD-NH2, the inhibition came out at 50%. On to H-GRYRSPYDRRRAYRRITD-NH2, for which the inhibition was 10%. The same measure, in the same setting: then H-GRYRSPYDRRRRYARITD-NH2, with 10%; and H-GRYRSPYDRRRRYRRATD-NH2, with 80%; and H-GRYRSPYDRRRRYRRITA-NH2, with 10%.

The target of the next assay is Neuronal acetylcholine receptor; alpha9/alpha10 (Homo sapiens) (UniProt Q9UGM1+Q9GZZ6). Description: Antagonist activity at human wild type alpha9alpha10 nAChR expressed in acetylcholine-induced Xenopus laevis oocytes assessed as inhibition of acetylcholine-induced current at 30 nM by two electrode voltage-clamp assay relative to control. The class given is cell-based. The note with it: Oocyte. (In general: In two-electrode clamp one electrode senses voltage and the other passes current.)
On to `CC[C@@H](C)[C@@H](NC(=O)[C@@H](CCCNC(=N)N)NC(=O)[C@@H](CCCNC(=N)N)NC(=O)[C@@H](Cc1ccc(O)cc1)NC(=O)[C@@H](CCCNC(=N)N)NC(=O)[C@@H](CCCNC(=N)N)NC(=O)[C@@H](CCCNC(=N)N)NC(=O)[C@@H](CCCNC(=N)N)NC(=O)[C@@H](CC(=O)O)NC(=O)[C@@H](Cc1ccc(O)cc1)NC(=O)[C@H]1CCCN1C(=O)[C@@H](CO)NC(=O)[C@@H](CCCNC(=N)N)NC(=O)[C@@H](Cc1ccc(O)cc1)NC(=O)[C@@H](CCCNC(=N)N)NC(=O)CN)C(=O)N[C@@H](C(=O)N[C@H](CC(=O)O)C(N)=O)[C@H](C)O`, for which the inhibition was 25%.

Take `N=C(N)NCCC[C@@H]1NC(=O)[C@H](CCCNC(=N)N)NC(=O)[C@H](CCCNC(=N)N)NC(=O)[C@H](CCCNC(=N)N)NC(=O)[C@H](CC(=O)O)NC(=O)[C@H](Cc2ccc(O)cc2)NC(=O)[C@@H]2CCCN2C(=O)[C@H](CO)NC(=O)[C@H](CCCNC(=N)N)NC(=O)[C@@H](N)CSSC[C@@H](C(N)=O)NC(=O)[C@H](Cc2ccc(O)cc2)NC1=O` (H-CRSPYDRRRRYC-NH2; disulfide 1-12): the inhibition stood at 25%. For `CC[C@H](C)[C@H](NC(=O)[C@H](CCCNC(=N)N)NC(=O)[C@H](CCCNC(=N)N)NC(=O)[C@@H]1CSSC[C@H](N)C(=O)N[C@@H](CCCNC(=N)N)C(=O)N[C@@H](CO)C(=O)N2CCC[C@H]2C(=O)N[C@@H](Cc2ccc(O)cc2)C(=O)N[C@@H](CC(=O)O)C(=O)N[C@@H](CCCNC(=N)N)C(=O)N[C@@H](CCCNC(=N)N)C(=O)N[C@@H](CCCNC(=N)N)C(=O)N[C@@H](CCCNC(=N)N)C(=O)N[C@@H](Cc2ccc(O)cc2)C(=O)N1)C(=O)N[C@H](C(=O)N[C@@H](CC(=O)O)C(N)=O)[C@@H](C)O` (H-CRSPYDRRRRYCRRITD-NH2; disulfide 1-12), the inhibition is 25%. The same measure, in the same setting: the figure for `CC[C@H](C)[C@H](NC(=O)[C@H](CCCNC(=N)N)NC(=O)[C@H](CCCNC(=N)N)NC(=O)[C@@H]1CSSC[C@H](NC(=O)[C@H](Cc2ccc(O)cc2)NC(=O)[C@H](CCCNC(=N)N)NC(=O)CN)C(=O)N[C@@H](CCCNC(=N)N)C(=O)N[C@@H](CO)C(=O)N2CCC[C@H]2C(=O)N[C@@H](Cc2ccc(O)cc2)C(=O)N[C@@H](CC(=O)O)C(=O)N[C@@H](CCCNC(=N)N)C(=O)N[C@@H](CCCNC(=N)N)C(=O)N[C@@H](CCCNC(=N)N)C(=O)N[C@@H](CCCNC(=N)N)C(=O)N[C@@H](Cc2ccc(O)cc2)C(=O)N1)C(=O)N[C@H](C(=O)N[C@@H](CC(=O)O)C(N)=O)[C@@H](C)O` (H-GRYCRSPYDRRRRYCRRITD-NH2; disulfide 4-15) is 25%; for `CC[C@H](C)[C@H](NC(=O)[C@H](CCCNC(=N)N)NC(=O)[C@H](CCCNC(=N)N)NC(=O)[C@@H]1CSSC[C@H](NC(=O)[C@H](Cc2ccc(O)cc2)NC(=O)[C@@H](N)CCCNC(=N)N)C(=O)N[C@@H](CCCNC(=N)N)C(=O)N[C@@H](CO)C(=O)N2CCC[C@H]2C(=O)N[C@@H](Cc2ccc(O)cc2)C(=O)N[C@@H](CC(=O)O)C(=O)N[C@@H](CCCNC(=N)N)C(=O)N[C@@H](CCCNC(=N)N)C(=O)N[C@@H](CCCNC(=N)N)C(=O)N[C@@H](CCCNC(=N)N)C(=O)N[C@@H](Cc2ccc(O)cc2)C(=O)N1)C(=O)N[C@H](C(=O)N[C@@H](CC(=O)O)C(N)=O)[C@@H](C)O` (H-RYCRSPYDRRRRYCRRITD-NH2; disulfide 3-14) it is 25%. The same measure, in the same setting: then `CC[C@H](C)[C@H](NC(=O)[C@H](CCCNC(=N)N)NC(=O)[C@H](CCCNC(=N)N)NC(=O)[C@@H]1CSSC[C@H](NC(=O)[C@@H](N)Cc2ccc(O)cc2)C(=O)N[C@@H](CCCNC(=N)N)C(=O)N[C@@H](CO)C(=O)N2CCC[C@H]2C(=O)N[C@@H](Cc2ccc(O)cc2)C(=O)N[C@@H](CC(=O)O)C(=O)N[C@@H](CCCNC(=N)N)C(=O)N[C@@H](CCCNC(=N)N)C(=O)N[C@@H](CCCNC(=N)N)C(=O)N[C@@H](CCCNC(=N)N)C(=O)N[C@@H](Cc2ccc(O)cc2)C(=O)N1)C(=O)N[C@H](C(=O)N[C@@H](CC(=O)O)C(N)=O)[C@@H](C)O` (H-YCRSPYDRRRRYCRRITD-NH2; disulfide 2-13), with 25%.

For `CC[C@H](C)[C@@H]1NC(=O)[C@H](CCCNC(=N)N)NC(=O)[C@H](CCCNC(=N)N)NC(=O)[C@@H]2CSSC[C@H](NC(=O)[C@H](Cc3ccc(O)cc3)NC(=O)[C@H](CCCNC(=N)N)NC(=O)CNC(=O)[C@H](CC(=O)O)NC(=O)[C@H]([C@@H](C)O)NC1=O)C(=O)N[C@@H](CCCNC(=N)N)C(=O)N[C@@H](CO)C(=O)N1CCC[C@H]1C(=O)N[C@@H](Cc1ccc(O)cc1)C(=O)N[C@@H](CC(=O)O)C(=O)N[C@@H](CCCNC(=N)N)C(=O)N[C@@H](CCCNC(=N)N)C(=O)N[C@@H](CCCNC(=N)N)C(=O)N[C@@H](CCCNC(=N)N)C(=O)N[C@@H](Cc1ccc(O)cc1)C(=O)N2` (cyclo(CRRITDGRYCRSPYDRRRRY); disulfide 1-10), the inhibition amounted to 25%. The same measure, in the same setting: then H-ARYRSPYDRRRRYRRITD-NH2, with 20%; and H-DRYRSPYDRRRRYRRITD-NH2, with 0%. Regarding H-GAYRSPYDRRRRYRRITD-NH2, the inhibition was found to be 20%. Same read-out and setting: then H-GDYRSPYDRRRRYRRITD-NH2, with 0%; and H-GRARSPYDRRRRYRRITD-NH2, with 20%; and H-GRRRSPYDRRRRYRRITD-NH2, with 10%. As to H-GRYAAPYDRRRRYRRITD-NH2, the inhibition worked out at 20%. With H-GRYASPYDRRRRYRRITD-NH2, the inhibition is 20%.

For the compound H-GRYDSPYDRRRRYRRITD-NH2, the inhibition was 0%. On to H-GRYRDPYDRRRRYRRITD-NH2, for which the inhibition amounted to 0%. On the same count and under the same terms, the figure for H-GRYRSAYDRRRRYRRITD-NH2 is 20%; for H-GRYRSDYDRRRRYRRITD-NH2 it is 0%; for H-GRYRSPADRRRRYRRITD-NH2 it is 20%. On the same count and under the same terms, then H-GRYRSPRDRRRRYRRITD-NH2, with 10%; and H-GRYRSPYARRRRYRRITD-NH2, with 20%; and H-GRYRSPYDARRRYRRITD-NH2, with 20%.

With H-GRYRSPYDDRRRYRRITD-NH2, the inhibition was determined as 0%. The same measure, in the same setting: the figure for H-GRYRSPYDRARRYRRITD-NH2 is 20%.

Take H-GRYRSPYDRDRRYRRITD-NH2: the inhibition was 0%.

On to H-GRYRSPYDRRDRYRRITD-NH2, for which the inhibition was 0%. Turning to H-GRYRSPYDRRRDYRRITD-NH2, the inhibition was found to be 0%. Consider H-GRYRSPYDRRRRDRRITD-NH2, for which the inhibition is 0%. On the same count and under the same terms, the entry for H-GRYRSPYDRRRRRRRITD-NH2 is “inactive”; for H-GRYRSPYDRRRRYDRITD-NH2 it is 0%. The same measure, in the same setting: the figure for H-GRYRSPYDRRRRYRAITD-NH2 is 20%; for H-GRYRSPYDRRRRYRDDTD-NH2 it is 0%; for H-GRYRSPYDRRRRYRDIDD-NH2 it is 0%.

On to H-GRYRSPYDRRRRYRDITD-NH2, for which the inhibition stood at 0%. Turning to H-GRYRSPYDRRRRYRRATD-NH2, the inhibition is 20%. For H-GRYRSPYDRRRRYRRIAD-NH2, the inhibition was 20%. Turning to H-GRYRSPYDRRRRYRRIRD-NH2, the inhibition came out at 10%.

Turning to H-GRYRSPYDRRRRYRRITA-NH2, the inhibition came out at 20%. Same read-out and setting: the entry for H-GRYRSPYDRRRRYRRITR-NH2 is “inactive”; for H-GRYRSPYRRRRRYRRITD-NH2 it is 10%.

For H-GRYRSRYDRRRRYRRITD-NH2, the inhibition was determined as 10%. Same read-out and setting: the figure for H-RRYRSPYDRRRRYRRITD-NH2 is 10%.

Still in this assay, the particulars now being: Oocyte, filed as antagonist.
Take H-GRDRSPYDRRRRYRRITD-NH2: the inhibition entry is “Active”. With H-GRYRRPYDRRRRYRRITD-NH2, the inhibition is greater than 80%. Turning to H-GRYRSPDDRRRRYRRITD-NH2, the inhibition entry is “Active”.

With H-GRYRSPYDRRARYRRITD-NH2, the inhibition entry is “Active”. On the same count and under the same terms, the entry for H-GRYRSPYDRRRAYRRITD-NH2 is “Active”. On to H-GRYRSPYDRRRRARRITD-NH2, for which the inhibition result is “Active”. Turning to H-GRYRSPYDRRRRYARITD-NH2, the inhibition entry was “Active”.

In the case of H-GRYRSPYDRRRRYRRRTD-NH2, the inhibition is greater than 80%.

Values taken from ChEMBL document CHEMBL5537181 (J Med Chem, 2024).
